Values after ≈ are worked out from the molar mass of the structure shown. Active and inactive are the calls of the source. The rule behind the calls is not given here.
Assays:
[1] = system: Mycolicibacterium smegmatis; test: Antimicrobial activity against Mycobacterium smegmatis MTCC 943 at 50 ug/mL after 12 hrs by well diffusion method; assay type: functional
Salmonella typhimurium [2] = test: Antimicrobial activity against Salmonella typhimurium MTCC 3732 after 12 hrs by well diffusion method; assay type: functional, Salmonella enterica subsp. enterica serovar Typhimurium; settings: Salmonella enterica, MTCC 3732, 12 h
[3] = system: Mycolicibacterium smegmatis; test: Antimicrobial activity against Mycobacterium smegmatis MTCC 943 at 100 ug/mL after 12 hrs by well diffusion method; assay type: functional; settings: for zone of inhibition at 100 µg/mL: MTCC 943, 12 h, read-out: DIZ
Salmonella typhimurium [4] = test: Antimicrobial activity against Salmonella typhimurium MTCC 3732 at 50 ug/mL after 12 hrs by well diffusion method; assay type: functional; settings: for diameter of the inhibition zone (DIZ): Salmonella enterica subsp. enterica serovar Typhimurium
Staphylococcus aureus [5] = test: Antimicrobial activity against Staphylococcus aureus MTCC 3160 at 100 ug/mL after 12 hrs by well diffusion method; assay type: functional; settings: for zone of inhibition at 100 µg/mL: MTCC 3160, 12 h, read-out: DIZ
[6] = system: Mycolicibacterium smegmatis; test: Antimicrobial activity against Mycobacterium smegmatis MTCC 943 after 12 hrs by well diffusion method; assay type: functional; settings: MTCC 943, 12 h
Staphylococcus aureus [7] = test: Antimicrobial activity against Staphylococcus aureus MTCC 3160 after 12 hrs by well diffusion method; assay type: functional; settings: MTCC 3160, 12 h
Staphylococcus aureus [8] = settings: MTCC 3160, 50 ug/mL
Description: Antimicrobial activity against Staphylococcus aureus MTCC 3160 at 50 ug/mL after 12 hrs by well diffusion method

Salmonella typhimurium [9] = test: Antimicrobial activity against Salmonella typhimurium MTCC 3732 at 100 ug/mL after 12 hrs by well diffusion method; assay type: functional; settings: for diameter of the inhibition zone (DIZ): Salmonella enterica subsp. enterica serovar Typhimurium
Candida albicans [10] = test: Antimicrobial activity against Candida albicans MTCC 183 at 50 ug/mL after 12 hrs by well diffusion method; assay type: functional; settings: for zone of inhibition at 50 µg/mL: MTCC 183, 12 h, read-out: DIZ
Candida albicans [11] = test: Antimicrobial activity against Candida albicans MTCC 183 at 100 ug/mL after 12 hrs by well diffusion method; assay type: functional; settings: for zone of inhibition at 100 µg/mL: MTCC 183, 12 h, read-out: DIZ
Pseudomonas aeruginosa [12] = test: Antimicrobial activity against Pseudomonas aeruginosa MTCC 4673 after 12 hrs by well diffusion method; assay type: functional; settings: MTCC 4673, 12 h
Pseudomonas aeruginosa [13] = test: Antimicrobial activity against Pseudomonas aeruginosa MTCC 4673 at 100 ug/mL after 12 hrs by well diffusion method; assay type: functional
Candida albicans [14] = test: Antimicrobial activity against Candida albicans MTCC 183 after 12 hrs by well diffusion method; assay type: functional; settings: MTCC 183, 12 h
Pseudomonas aeruginosa [15] = test: Antimicrobial activity against Pseudomonas aeruginosa MTCC 4673 at 50 ug/mL after 12 hrs by well diffusion method; assay type: functional
[16] = Salmonella enterica, MTCC 3732, 12 h, read-out: DIZ

SMILES | diameter of the inhibition zone (DIZ) (Salmonella typhimurium [4]) | DIZ (Staphylococcus aureus [8]) | diameter of the inhibition zone (DIZ) (Salmonella typhimurium [9]) | diameter of the inhibition zone (DIZ) (Candida albicans [10]) | zone of inhibition at 100 µg/mL (Candida albicans [11]) [mm] | MIC (Candida albicans [14]) [mg/L] | diameter of the inhibition zone (DIZ) [1] | diameter of the inhibition zone (DIZ) [3] | diameter of the inhibition zone (DIZ) (Staphylococcus aureus [5]) | diameter of the inhibition zone (DIZ) (Candida albicans [11]) | diameter of the inhibition zone (DIZ) (Pseudomonas aeruginosa [13]) | diameter of the inhibition zone (DIZ) (Pseudomonas aeruginosa [15]) | further results
NNC(=O)c1cn(Cc2ccc(Cl)cc2Cl)c2cc(C(F)(F)F)ccc2c1=O | inactive | inactive | inactive | inactive | 7 | 100 (≈ 232 µM) |  |  |  |  |  |  | zone of inhibition at 50 µg/mL ([1]; MTCC 943, 12 h, read-out: DIZ): 9 mm; MIC (Salmonella typhimurium [2]): > 100 mg/L; zone of inhibition at 100 µg/mL [3]: 9 mm; zone of inhibition at 100 µg/mL (Staphylococcus aureus [5]): 8 mm; MIC [6]: 25 mg/L (≈ 58.1 µM); MIC (Staphylococcus aureus [7]): 100 mg/L (≈ 232 µM); MIC (Pseudomonas aeruginosa [12]): 25 mg/L (≈ 58.1 µM); zone of inhibition at 100 µg/mL (Pseudomonas aeruginosa [13]; MTCC 4673, 12 h, read-out: DIZ): 8 mm; zone of inhibition at 50 µg/mL (Pseudomonas aeruginosa [15]; MTCC 4673, 12 h, read-out: DIZ): 8 mm
C#CCn1cc(C(=O)NN)c(=O)c2cccc(C(F)(F)F)c21 | inactive | inactive | inactive | inactive |  |  | inactive | inactive | inactive | inactive | inactive | inactive | 
CCOC(=O)c1cn(Cc2ccc(C#N)cc2)c2c(C(F)(F)F)cccc2c1=O | inactive | inactive | inactive | inactive |  |  | inactive | inactive | inactive | inactive | inactive | inactive | 
C#CCn1cc(C(=O)OCC)c(=O)c2cccc(C(F)(F)F)c21 | inactive | inactive | inactive | inactive |  |  | inactive | inactive | inactive | inactive | inactive | inactive | 
C#CCn1cc(C(=O)O)c(=O)c2cccc(C(F)(F)F)c21 | inactive | inactive | inactive | inactive |  |  | inactive | inactive | inactive | inactive | inactive | inactive | 
C#CCn1cc(C(=O)O)c(=O)c2ccc(C(F)(F)F)cc21 |  | inactive |  |  | 12 | 25 (≈ 84.7 µM) | inactive |  |  |  | inactive | inactive | MIC (Salmonella typhimurium [2]): 25 mg/L (≈ 84.7 µM); zone of inhibition at 100 µg/mL [3]: 7 mm; zone of inhibition at 50 µg/mL (Salmonella typhimurium [4]; [16]): 8 mm; zone of inhibition at 100 µg/mL (Staphylococcus aureus [5]): 10 mm; MIC [6]: 100 mg/L (≈ 339 µM); MIC (Staphylococcus aureus [7]): 100 mg/L (≈ 339 µM); zone of inhibition at 100 µg/mL (Salmonella typhimurium [9]; [16]): 8 mm; zone of inhibition at 50 µg/mL (Candida albicans [10]): 12 mm; MIC (Pseudomonas aeruginosa [12]): > 100 mg/L
CCOC(=O)c1cn(Cc2ccc(Cl)cc2Cl)c2cc(C(F)(F)F)ccc2c1=O | inactive | inactive | inactive | inactive |  |  | inactive | inactive | inactive | inactive | inactive | inactive | 
OC(Cn1cncn1)(Cn1cncn1)c1ccc(F)cc1F [FLUCONAZOLE] |  |  |  |  | 29 | < 10 |  |  |  |  |  |  | zone of inhibition at 50 µg/mL (Candida albicans [10]): 26.3 mm
